Experiments:
[1] = system: MM.1S cells; assay: MTT viability of MM.1S cells with or without rhIL-6 or rhIGF-I; format: cell-based, human; conditions: human, 24 h
Source text: Adhesion of MM cells to BMSCs induces IL-6 and IGF-I secretion from BMSCs, which not only regulates the growth of MM cells, but also protects against chemotherapy. See Hardin, J., MacLeod, S., Grigorieva, I., Chang, R., Barlogie, B., Xiao, H. & Epstein, J. (1994) Blood 84, 3063-70 and Chauhan, D., Kharbanda, S., Ogata, A., Urashima, M., Teoh, G., Robertson, M., Kufe, D. W. & Anderson, K. C. […] Thus, whether rhIL-6 or rhIGF-I inhibits apoptosis in MM cells induced by the compound of Formula (II) (X=Cl) was evaluated. […] At 24 h cells were harvested and viability analyzed by MTT assays. […] Median viability was 51±2.1% after treatment with Dex and 92±5.5% for Dex+rhIL-6 (P=0.05, as determined by one-sided Wilcoxon rank-sum test). Results are mean±SD of three independent experiments. […] In contrast and as in other studies, both IL-6 and IGF-I block Dex-induced decreased MM.1S cell viability. See Chauhan, D., Hideshima, T. & Anderson, K. C. (2003) Int J Hematol 78, 114-20 and Mitsiades, C. S., Mitsiades, N., Poulaki, V., Schlossman, R., Akiyama, M., Chauhan, D., Hideshima, T., Treon, S. P., Munshi, N. C., Richardson, P. G. & Anderson, K. C.

[2] = target: proteasome β-5, β-1, β-2 subunits in MM.1S cells (Homo sapiens, UniProt P28072+P28074+Q99436); format: cell-based; conditions: even higher doses; data not shown
Procedure: In vivo determination of proteasome activity was conducted using a competition experiment with Dansyl-Ahx3L3VS, which covalently modifies all active proteasome subunits. This inhibitor contains a dansyl sulfonamide hexanoyl hapten that can be visualized by immunoblotting using antibodies against the dansyl moiety. […] Cells were lysed by incubating them for 30 mins in NP-40 lysis buffer (50 mM Tris-HCl pH 8.0, 150 mM NaCl, 1% NP-40), followed by 5 min. centrifugation to remove membrane fractions, nuclei, and cell debris. […] Blots were developed by enhanced chemiluminescence (Western Lightning, Perkin-Elmer).

[3] = system: Bcl2-transfected MM.1S cells; assay: MTT viability of Bcl2-transfected MM.1S cells
Procedure: Bcl2 confers resistance to conventional therapies in cancer cells, including MM. […] Bcl2 can modestly attenuate Bortezomib-induced apoptosis. Thus, whether ectopic expression of Bcl2 in MM.1S cells affects responsiveness to the compound of formula (II) (X=Cl) was evaluated. MM.1S cells were stably transfected with Bcl2 construct and analyzed for alterations in cell viability using an MTT assay. […] Results are mean±SD of three independent experiments.
During apoptosis Bax neutralizes the antiapoptotic function of Bcl-2, thereby facilitating the cyto-c release and caspase-9 activation. Bcl-2 also confers drug resistance in cancer cells, including MM, and provides partial protection against Bortezomib-induced killing. Therefore, whether ectopic expression of Bcl-2 in MM.1S cells affects the ability of the compound of formula (II) or Bortezomib to trigger cytotoxicity and postmitochondrial apoptotic signaling in MM cells was evaluated.

[4] = system: RPMI 8226 MM cells; format: in vivo, beige-nude-xid (BNX) mice; conditions: i.v. twice weekly (compound 0.15 mg/kg; Bortezomib 1.0 mg/kg)
[5] = system: MM.1S cells; assay: cells
Source text: MM.1S cells were also transiently transfected using Cell line Nucleofecto kit V, according to the manufacturer's instructions (Amaxa Biosystems, Germany), with vector alone, DN-caspase-8, DN-caspase-9, or DN-FADD and cotransfected with vector containing green fluorescence protein (GFP) alone.
It was next determined whether inhibition of an upstream signaling pathway that leads to caspase-8 activation affects the response to the compound of formula (II) (X=Cl) or Bortezomib. The Fas-associated death domain (FADD) protein is an important part of the deathinducing signaling complexes (DISCs) that assemble upon engagement of TNF receptor family members, such as Fas, resulting in proteolytic processing and autoactivation of pro-caspase-8. Since both the compound of formula (II) (X=Cl) and Bortezomib trigger caspase-8 activation, the role of FADD during this event in MM cells was evaluated using DN-FADD.

[6] = system: Bax; assay: Immunoblot of Bax in mitochondrial protein extracts; format: cell-based, human; conditions: MM.1S cells; FIG. 12E
Procedure: Immunoblot analysis was performed using antibodies to cytochrome-c, Smac, Caspase-8, -9, or -3 (Cell Signaling, Beverly, Mass.), tubulin (Sigma, St. Louis, Mo.), PARP, Hsp60, or Bax (BD Bioscience Pharmingen, San Diego, Calif.). Blots were developed by enhanced chemiluminesence (ECL; Amersham, Arlington Heights, Ill.).
Previous studies have established that Bax induces mitochondrial apoptotic pathway. See Wei, M. C., Zong, W. X., Cheng, E. H., Lindsten, T., Panoutsakopoulou, V., Ross, A. J., Roth, K. A., MacGregor, G. R., Thompson, C. B. & Korsmeyer, S. J. (2001) Science 292, 727-30 and Lei, K., Nimnual, A., Zong, W. X., Kennedy, N. J., Flavell, R. A., Thompson, C. […] Thus, whether MM cell apoptosis induced by the compound of formula (II) (X=Cl) correlates with alterations in Bax was evaluated. […] Blots are representatives of three independent experiments.

[7] = system: Mouse embryonic fibroblast (MEFs); assay: MTT viability of MEFs with wild-type or knock-out Bax; format: cell-based; conditions: 48 h; FIG. 12F
Source text: Results are mean±SD of three independent experiments (P<0.05).

[8] = system: Lymphocytes from five healthy donors; assay: MTT cytotoxicity on normal lymphocytes; conditions: human, 72 h
Source text: Bortezomib therapy is associated with toxicity in patients. […] Results are the mean±SD of three independent experiments.

[9] = system: Chymotrypsin-like proteasome activity; format: cell-based, human; conditions: data not shown
Source text: (§1) Whether the compound of formula (II) or Bortezomib alters proteasome activity in normal lymphocytes and skin fibroblasts was also examined.

[10] = system: normal CCD-27sk fibroblasts; assay: cells; format: cell-based, human; conditions: Homo sapiens
Source text: as §1

[11] = target: proteasome (Homo sapiens, UniProt P28074); conditions: Goldberg & Rock 2002; Adams 2004; cited from earlier work
Sequence of proteasome (P28074 60-263): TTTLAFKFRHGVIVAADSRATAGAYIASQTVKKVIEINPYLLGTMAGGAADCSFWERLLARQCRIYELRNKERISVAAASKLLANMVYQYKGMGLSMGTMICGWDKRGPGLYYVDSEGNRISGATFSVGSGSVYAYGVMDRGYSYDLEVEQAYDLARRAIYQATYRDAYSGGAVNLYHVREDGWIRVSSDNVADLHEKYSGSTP

SMILES | median cell viability [1] [%] | inhibition of the β-2 subunits [2] | increased survival of Bcl-2 transfectants ([3]; Bcl-2- versus vector-transfected, FIG. 14A) [%] | decrease of caspase-9 cleavage in Bcl-2-transfected cells by densitometry ([3]; versus vector-transfected cells, FIG. 14B) [fold] | tumor progression ([4]; p<0.01) | survival ([4]; p=0.0137) | increase in survival of DN-FADD-transfected compared to vector-transfected cells ([5]; FIG. 12D) [%] | IC50 ([5]; Homo sapiens, MM1.S) [nM] | effect of caspase-8 blockade on triggered cell death ([5]; IETD-fmk, FIG. 12A) | effect of caspase-9 inhibition on decreased viability ([5]; LEHD-FMK, FIG. 12A) | survival of DN-caspase-8-transfected compared to DN-caspase-9-transfected cells ([5]; treated at IC50, FIG. 12B) | effect of caspase-3 inhibition on induced apoptosis ([5]; z-VAD-fmk, FIG. 12A) | Bax levels in mitochondria [6] | cell viability in Bax (WT) and Bax (knock-out) MEFs [7] | decrease in viability of normal lymphocytes [8] [%] | inhibition of Chymotrypsin-like proteasome activity ([9]; 20 nM) [%] | proteasome activity in CCD-27sk fibroblasts ([9]; treatment at the IC50) | IC50 [10] [nM] | proteasome activities inhibited [11]
C[C@@H]1C[C@H]2[C@@H]3CCC4=CC(=O)C=C[C@]4(C)[C@@]3(F)[C@@H](O)C[C@]2(C)[C@@]1(O)C(=O)CO [Dex, reference compound] | 51±2.1 | – | – | – | – | – | – | – | – | – | – | – | – | – | – | – | – | – | –
CC(C)C[C@H](NC(=O)[C@H](Cc1ccccc1)NC(=O)c1cnccn1)B(O)O [Bortezomib, reference compound] | – | does not inhibit the β-2 subunits | 21 | 3 | significantly reduced the tumor progression | prolonged survival | 16 | 5 | equally blocked | equally blocked | increased the survival to a similar extent | markedly abrogates | significant accumulation of Bax in mitochondria | deletion of Bax confers significant resistance | 50 | 59±11 | inhibited proteasome activity | 15 | inhibit only chymotrypsin-like proteasome activity
